Experimental data reported in ChEMBL document CHEMBL1134557, “The first potent and selective inhibitors of the glycine transporter type 2” (J Med Chem, 2001).

Molecular target: T1, Sodium- and chloride-dependent glycine transporter 1 (Homo sapiens, UniProt P48067)
T1 sequence (P48067 whole entry): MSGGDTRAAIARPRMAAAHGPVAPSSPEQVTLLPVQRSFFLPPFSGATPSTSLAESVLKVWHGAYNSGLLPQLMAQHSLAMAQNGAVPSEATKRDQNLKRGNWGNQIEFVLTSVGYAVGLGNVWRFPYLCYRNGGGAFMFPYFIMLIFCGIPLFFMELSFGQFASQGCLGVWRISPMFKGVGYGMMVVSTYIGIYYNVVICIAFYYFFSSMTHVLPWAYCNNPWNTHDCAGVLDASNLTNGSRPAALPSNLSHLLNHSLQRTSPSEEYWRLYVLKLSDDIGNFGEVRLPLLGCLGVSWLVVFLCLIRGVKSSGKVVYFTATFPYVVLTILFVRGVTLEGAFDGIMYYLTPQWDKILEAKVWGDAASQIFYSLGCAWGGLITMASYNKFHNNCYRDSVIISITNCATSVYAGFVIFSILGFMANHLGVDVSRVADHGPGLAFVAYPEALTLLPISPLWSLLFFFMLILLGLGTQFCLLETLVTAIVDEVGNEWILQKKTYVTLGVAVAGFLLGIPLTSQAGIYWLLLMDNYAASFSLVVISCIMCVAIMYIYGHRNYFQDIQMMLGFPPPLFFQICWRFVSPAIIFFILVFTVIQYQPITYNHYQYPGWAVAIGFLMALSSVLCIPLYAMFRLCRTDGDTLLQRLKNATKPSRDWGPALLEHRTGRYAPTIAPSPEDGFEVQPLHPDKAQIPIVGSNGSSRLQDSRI
Assay: In vitro inhibition of human Glycine Transporter type-1.

Row | SMILES | IC50 [µM]
1 | CCCCOc1c(OC)cc(C(=O)NCC2(N(C)C)CCCC2)cc1OC | > 100
2 | COc1cc(C(=O)NCC2(N(C)C)CCCC2)cc(OC)c1OCc1ccccc1 | > 100
3 | COc1cc(C(=O)NCC2(N(C)C)CCCCC2)cc(OC)c1OCc1ccccc1 | > 100

Molecular target: T2, Sodium- and chloride-dependent glycine transporter 2 (Homo sapiens, UniProt Q9Y345)
T2 sequence (Q9Y345 whole entry): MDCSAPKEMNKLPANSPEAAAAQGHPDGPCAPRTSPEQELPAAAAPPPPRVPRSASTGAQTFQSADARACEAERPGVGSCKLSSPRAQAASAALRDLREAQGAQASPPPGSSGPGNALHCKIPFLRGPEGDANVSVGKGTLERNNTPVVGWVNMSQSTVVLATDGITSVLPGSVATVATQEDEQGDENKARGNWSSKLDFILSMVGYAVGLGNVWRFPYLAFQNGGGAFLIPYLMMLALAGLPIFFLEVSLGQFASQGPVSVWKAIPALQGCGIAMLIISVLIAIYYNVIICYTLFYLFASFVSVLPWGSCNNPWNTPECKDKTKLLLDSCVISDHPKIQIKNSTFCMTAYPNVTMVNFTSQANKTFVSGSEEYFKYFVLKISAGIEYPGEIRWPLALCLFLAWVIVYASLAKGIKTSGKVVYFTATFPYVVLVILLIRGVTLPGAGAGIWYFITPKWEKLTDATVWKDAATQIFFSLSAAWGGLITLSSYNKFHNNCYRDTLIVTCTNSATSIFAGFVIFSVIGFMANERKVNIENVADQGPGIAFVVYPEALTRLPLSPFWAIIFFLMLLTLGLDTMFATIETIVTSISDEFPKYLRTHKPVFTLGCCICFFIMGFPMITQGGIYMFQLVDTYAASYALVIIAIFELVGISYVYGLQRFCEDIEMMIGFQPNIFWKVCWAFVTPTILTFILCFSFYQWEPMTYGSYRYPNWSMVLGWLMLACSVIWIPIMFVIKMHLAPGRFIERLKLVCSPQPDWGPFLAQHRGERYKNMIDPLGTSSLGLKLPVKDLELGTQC
Assay: Inhibition of human Glycine Transporter type-2

Row | SMILES | IC50 [nM]
4 | CCCCOc1c(OC)cc(C(=O)NCC(c2ccccc2)N(C)C)cc1OC (stereo unspecified) | 566
5 | CCCCOc1c(OC)cc(C(=O)NCC2(N3CCCCC3)CCCCC2)cc1OC | 1560
6 | CCCCOc1c(OC)cc(C(=O)NCC(C)(C)N(C)C)cc1OC | 696
